Source: PubChem BioAssay (NCI)
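Exposure lasted 48 hours, with cells grown in 96-well plates and compounds tested at five concentrations. Abbreviation: GI50, concentration required for 50% inhibition of growth. TGI: total growth inhibition.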

How the values were obtained:
Experiment in all cases: NCI-60 cell line screen, 48 h
[1] = system: 786-0 renal
[2] = system: A498 renal
[3] = system: A549 NSCLC
[4] = system: ACHN renal
[5] = system: BT-549 breast
[6] = system: CAKI-1 renal
[7] = system: CCRF-CEM leukemia
[8] = system: COLO 205 colon
[9] = system: DU-145 prostate
[10] = system: EKVX NSCLC
[11] = system: HCC-2998 colon
[12] = system: HCT-116 colon
[13] = system: HCT-15 colon
[14] = system: HL-60(TB) leukemia
[15] = system: HOP-62 NSCLC
[16] = system: HOP-92 NSCLC
[17] = system: HS 578T breast
[18] = system: HT29 colon
[19] = system: IGROV1 ovarian
[20] = system: K-562 leukemia
[21] = system: KM12 colon
[22] = system: LOX IMVI melanoma
[23] = system: M14 melanoma
[24] = system: MALME-3M melanoma
[25] = system: MCF7 breast
[26] = system: MDA-MB-231 breast
[27] = system: MDA-MB-435
[28] = system: MDA-MB-468 breast
[29] = system: MOLT-4 leukemia
[30] = system: NCI-H226 lung
[31] = system: NCI-H23 lung
[32] = system: NCI-H460 lung
[33] = system: NCI-H522 lung
[34] = system: NCI/ADR-RES ovarian
[35] = system: OVCAR-3 ovarian
[36] = system: OVCAR-4 ovarian
[37] = system: OVCAR-5 ovarian
[38] = system: OVCAR-8 ovarian
[39] = system: PC-3 prostate
[40] = system: RPMI-8226 leukemia
[41] = system: RXF 393 renal
[42] = system: SF-268 CNS
[43] = system: SF-295 CNS
[44] = system: SF-539 CNS
[45] = system: SK-MEL-2 melanoma
[46] = system: SK-MEL-28 melanoma
[47] = system: SK-MEL-5 melanoma
[48] = system: SK-OV-3 ovarian
[49] = system: SN12C renal
[50] = system: SNB-19 CNS
[51] = system: SNB-75 CNS
[52] = system: SR leukemia
[53] = system: SW-620 colon
[54] = system: T-47D breast
[55] = system: TK-10 renal
[56] = system: U251 CNS
[57] = system: UACC-257 melanoma
[58] = system: UACC-62 melanoma
[59] = system: UO-31 renal

## N/C(=N\c1nc2ccccc2s1)NC(=O)Nc1ccc(Cl)cc1Cl
[1]
  GI50: 0.456 µM
  TGI: 1.76 µM
[2]
  GI50: 1.64 µM
  TGI: 3.73 µM
[3]
  GI50: 0.878 µM
  TGI: 2.84 µM
[4]
  GI50: 0.574 µM
  TGI: 2.08 µM
[5]
  GI50: 0.414 µM
  TGI: 5.04 µM
[6]
  GI50: 0.389 µM
  TGI: 2.21 µM
[7]
  GI50: 0.36 µM
  TGI: 3.8 µM
[8]
  GI50: 0.491 µM
  TGI: 1.78 µM
[9]
  GI50: 1 µM
  TGI: 3.06 µM
[10]
  GI50: 0.489 µM
  TGI: 2.66 µM
[11]
  GI50: 0.978 µM
  TGI: 2.86 µM
[12]
  GI50: 0.384 µM
  TGI: 1.51 µM
[13]
  GI50: 0.379 µM
  TGI: 1.98 µM
[14]
  GI50: 0.295 µM
[15]
  GI50: 0.397 µM
  TGI: 1.81 µM
[16]
  GI50: 0.923 µM
  TGI: 3.91 µM
[17]
  GI50: 0.289 µM
  TGI: 2.43 µM
[18]
  GI50: 0.341 µM
  TGI: 1.15 µM
[19]
  GI50: 0.558 µM
  TGI: 2.35 µM
[20]
  GI50: 0.37 µM
[21]
  GI50: 0.439 µM
  TGI: 3.6 µM
[22]
  GI50: 0.567 µM
  TGI: 1.96 µM
[23]
  GI50: 0.39 µM
  TGI: 1.84 µM
[24]
  GI50: 0.454 µM
  TGI: 2.13 µM
[25]
  GI50: 0.309 µM
  TGI: 1.78 µM
[26]
  GI50: 0.571 µM
  TGI: 2.18 µM
[27]
  GI50: 0.16 µM
  TGI: 0.51 µM
[28]
  GI50: 0.271 µM
  TGI: 0.788 µM
[29]
  GI50: 0.536 µM
[30]
  GI50: 0.948 µM
  TGI: 2.68 µM
[31]
  GI50: 0.835 µM
  TGI: 2.44 µM
[32]
  GI50: 0.419 µM
  TGI: 1.51 µM
[33]
  GI50: 0.194 µM
  TGI: 0.787 µM
[34]
  GI50: 0.269 µM
  TGI: 0.937 µM
[35]
  GI50: 0.359 µM
  TGI: 1.34 µM
[36]
  GI50: 1.53 µM
  TGI: 5.07 µM
[37]
  GI50: 0.948 µM
  TGI: 3.09 µM
[38]
  GI50: 0.766 µM
  TGI: 4.61 µM
[39]
  GI50: 0.753 µM
  TGI: 3.89 µM
[40]
  GI50: 1.12 µM
  TGI: 8.96 µM
[41]
  GI50: 0.357 µM
  TGI: 1.69 µM
[42]
  GI50: 1.16 µM
  TGI: 23 µM
[43]
  GI50: 0.334 µM
  TGI: 1.31 µM
[44]
  GI50: 0.261 µM
  TGI: 0.842 µM
[45]
  GI50: 0.351 µM
  TGI: 1.17 µM
[46]
  GI50: 1.04 µM
  TGI: 5.67 µM
[47]
  GI50: 0.352 µM
  TGI: 1.71 µM
[48]
  GI50: 0.434 µM
  TGI: 2.21 µM
[49]
  GI50: 0.566 µM
  TGI: 2.21 µM
[50]
  GI50: 0.672 µM
  TGI: 5.54 µM
[51]
  GI50: 0.23 µM
  TGI: 0.997 µM
[52]
  GI50: 0.952 µM
[53]
  GI50: 0.455 µM
  TGI: 2.46 µM
[54]
  GI50: 0.421 µM
  TGI: 6.42 µM
[55]
  GI50: 1.91 µM
  TGI: 4.28 µM
[56]
  GI50: 0.458 µM
  TGI: 1.75 µM
[57]
  GI50: 2.07 µM
  TGI: 17.7 µM
[58]
  GI50: 0.374 µM
  TGI: 3.2 µM
[59]
  GI50: 0.503 µM
  TGI: 1.96 µM

## O=C(N/C(=C1/OCCN1Cc1ccccc1)[P+](c1ccccc1)(c1ccccc1)c1ccccc1)c1ccccc1
[1]
  GI50: 10.7 µM
  TGI: 23.8 µM
[2]
  GI50: 16.4 µM
  TGI: 31.4 µM
[3]
  GI50: 15.1 µM
  TGI: 54.4 µM
[4]
  GI50: 13.4 µM
  TGI: 26.5 µM
[5]
  GI50: 2.47 µM
  TGI: 8.75 µM
[6]
  GI50: 5.76 µM
  TGI: 21.7 µM
[7]
  GI50: 3.84 µM
  TGI: 29.9 µM
[8]
  GI50: 2.66 µM
  TGI: 7.46 µM
[9]
  GI50: 4.46 µM
  TGI: 17.4 µM
[10]
  GI50: 3.63 µM
  TGI: 12.2 µM
[11]
  GI50: 2.68 µM
  TGI: 9.86 µM
[12]
  GI50: 3.09 µM
  TGI: 12.9 µM
[13]
  GI50: 15.6 µM
  TGI: 30.2 µM
[14]
  GI50: 1.78 µM
  TGI: 5.46 µM
[15]
  GI50: 11.3 µM
  TGI: 25 µM
[16]
  GI50: 1.99 µM
  TGI: 7.37 µM
[17]
  GI50: 3.07 µM
  TGI: 20.7 µM
[18]
  GI50: 6.13 µM
  TGI: 29.8 µM
[19]
  GI50: 2.47 µM
  TGI: 9.71 µM
[20]
  GI50: 2.08 µM
  TGI: > 100 µM
[21]
  GI50: 3.4 µM
  TGI: 11.9 µM
[22]
  GI50: 4.12 µM
  TGI: 15.1 µM
[23]
  GI50: 3.67 µM
  TGI: 15.7 µM
[24]
  GI50: 1.66 µM
  TGI: 3.7 µM
[25]
  GI50: 2.71 µM
  TGI: 11.3 µM
[26]
  GI50: 2.1 µM
  TGI: 5.81 µM
[27]
  GI50: 3.2 µM
  TGI: 12 µM
[28]
  GI50: 1.45 µM
  TGI: 5.68 µM
[29]
  GI50: 3.36 µM
  TGI: 68.3 µM
[30]
  GI50: 3.91 µM
  TGI: 15.6 µM
[31]
  GI50: 3.16 µM
  TGI: 13.3 µM
[32]
  GI50: 3.71 µM
  TGI: 14.6 µM
[33]
  GI50: 1.83 µM
  TGI: 6.36 µM
[34]
  GI50: > 100 µM
  TGI: > 100 µM
[35]
  GI50: 2.78 µM
  TGI: 10.8 µM
[36]
  GI50: 5 µM
  TGI: 21.8 µM
[37]
  GI50: 13.5 µM
  TGI: 26.8 µM
[38]
  GI50: 4.25 µM
  TGI: 16.9 µM
[39]
  GI50: 3.77 µM
  TGI: 16.4 µM
[40]
  GI50: 1.14 µM
  TGI: 3.94 µM
[41]
  GI50: 2.46 µM
  TGI: 10.3 µM
[42]
  GI50: 3.41 µM
  TGI: 15.7 µM
[43]
  GI50: 9.92 µM
  TGI: 21.9 µM
[44]
  GI50: 6.59 µM
  TGI: 19.6 µM
[45]
  GI50: 2.36 µM
  TGI: 6.08 µM
[46]
  GI50: 3.75 µM
  TGI: 14.9 µM
[47]
  GI50: 1.58 µM
  TGI: 2.93 µM
[48]
  GI50: 10.3 µM
  TGI: 27.2 µM
[49]
  GI50: 3.34 µM
  TGI: 11.7 µM
[50]
  GI50: 2.79 µM
  TGI: 10.7 µM
[51]
  GI50: 1.62 µM
  TGI: 10.7 µM
[52]
  GI50: 2.7 µM
  TGI: 11.6 µM
[53]
  GI50: 4.51 µM
  TGI: 17.1 µM
[54]
  GI50: 2.41 µM
  TGI: 12.9 µM
[55]
  GI50: 4.06 µM
  TGI: 16.8 µM
[56]
  GI50: 3.24 µM
  TGI: 13 µM
[57]
  GI50: 2.22 µM
  TGI: 5.97 µM
[58]
  GI50: 2.05 µM
  TGI: 6.71 µM
[59]
  GI50: 15.5 µM
  TGI: 29.1 µM
